According to ChEMBL document CHEMBL4376834, “Discovery of 4H-Chromen-4-one Derivatives as a New Class of Selective Rho Kinase (ROCK) Inhibitors, which Showed Potent Activity in ex Vivo Diabetic Retinopathy Models” (J Med Chem, 2019):

Legend:
[1] = target: Serine/threonine-protein kinase B-raf (Homo sapiens, UniProt P15056, V600E); experiment: Inhibition of recombinant full length human B-Raf V599E mutant (416 to end residues) using myelin basic protein as substrate incubated for 40 mins in presence of [gamma-33ATP] by radiometric scintillation counting analysis
Serine/threonine-protein kinase B-raf, sequence (P15056 2-766 V600E limits assumed): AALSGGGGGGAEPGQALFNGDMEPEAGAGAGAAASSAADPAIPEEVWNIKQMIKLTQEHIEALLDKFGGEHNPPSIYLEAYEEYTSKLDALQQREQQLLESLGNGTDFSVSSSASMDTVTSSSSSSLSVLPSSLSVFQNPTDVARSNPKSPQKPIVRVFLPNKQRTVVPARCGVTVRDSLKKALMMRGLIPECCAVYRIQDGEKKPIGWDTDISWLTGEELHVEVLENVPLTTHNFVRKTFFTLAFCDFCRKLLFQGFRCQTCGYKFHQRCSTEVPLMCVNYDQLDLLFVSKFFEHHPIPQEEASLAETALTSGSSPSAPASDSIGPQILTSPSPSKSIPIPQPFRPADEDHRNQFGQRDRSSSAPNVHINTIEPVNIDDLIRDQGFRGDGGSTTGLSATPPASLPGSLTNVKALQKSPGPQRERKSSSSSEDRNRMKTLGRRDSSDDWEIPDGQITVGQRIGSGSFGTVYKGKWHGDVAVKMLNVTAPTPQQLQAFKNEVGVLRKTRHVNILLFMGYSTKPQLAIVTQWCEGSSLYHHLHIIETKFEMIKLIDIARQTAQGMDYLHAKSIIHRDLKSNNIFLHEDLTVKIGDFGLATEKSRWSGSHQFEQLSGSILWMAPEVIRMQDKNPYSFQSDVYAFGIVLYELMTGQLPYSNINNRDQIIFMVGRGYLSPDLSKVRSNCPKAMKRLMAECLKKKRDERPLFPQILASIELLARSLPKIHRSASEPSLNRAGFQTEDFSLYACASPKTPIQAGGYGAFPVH

[2] = target: Protein kinase C theta type (Homo sapiens, UniProt Q04759); experiment: Inhibition of recombinant full length human PKCtheta using histone H1 as substrate incubated for 40 mins in presence of [gamma33P]ATP by radiometric scintillation counting analysis
[3] = target: Epidermal growth factor receptor (Homo sapiens, UniProt P00533, L858R/T790M); experiment: Inhibition of recombinant human EGFR T790M/L858R double mutant (696 to end residues) using poly(Glu, Tyr) 4:1 as substrate after 40 mins in presence of [gamma-33ATP] by radiometric scintillation counting analysis
[4] = target: NUAK family SNF1-like kinase 2 (Homo sapiens, UniProt Q9H093); experiment: Inhibition of recombinant human full length NUAK2 using KKKVSRSGLYRSP as substrate measured after 40 mins in presence of [gamma33P]ATP by radiometric scintillation counting analysis
[5] = target: Tyrosine-protein kinase Lck (Homo sapiens, UniProt P06239); experiment: Inhibition of recombinant full length activated human LCK using […] as substrate after 40 mins in presence of [gamma-33ATP] by radiometric scintillation counting analysis
Tyrosine-protein kinase Lck, sequence (P06239 whole entry): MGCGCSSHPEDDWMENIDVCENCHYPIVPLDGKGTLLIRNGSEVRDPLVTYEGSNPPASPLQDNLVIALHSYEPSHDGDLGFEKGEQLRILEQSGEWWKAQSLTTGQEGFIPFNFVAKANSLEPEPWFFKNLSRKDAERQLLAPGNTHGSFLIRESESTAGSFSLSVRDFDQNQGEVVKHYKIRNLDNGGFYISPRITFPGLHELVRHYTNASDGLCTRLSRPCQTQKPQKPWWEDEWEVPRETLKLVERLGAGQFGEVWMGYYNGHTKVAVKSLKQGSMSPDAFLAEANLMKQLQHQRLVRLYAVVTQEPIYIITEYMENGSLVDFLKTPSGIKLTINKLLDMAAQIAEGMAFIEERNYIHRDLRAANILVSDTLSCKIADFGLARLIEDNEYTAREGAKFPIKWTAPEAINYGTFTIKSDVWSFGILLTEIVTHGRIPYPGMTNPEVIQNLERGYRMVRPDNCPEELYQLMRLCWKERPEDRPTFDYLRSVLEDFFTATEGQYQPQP

[6] = target: Ribosomal protein S6 kinase alpha-5 (Homo sapiens, UniProt O75582); experiment: Inhibition of recombinant human MSK1 (2 to end residues) using GRPRTSSFAEGKK as substrate incubated for 40 mins in presence of [gamma-33ATP by radiometric scintillation counting analysis
[7] = target: Serine/threonine-protein kinase ICK (Homo sapiens, UniProt Q9UPZ9); experiment: Inhibition of human recombinant ICK (1 to 312 residues) using RRRFRPASPLRGP as substrate after 40 mins by [gamma-33ATP] by radiometric scintillation counting analysis
[8] = target: MAPK/MAK/MRK overlapping kinase (Homo sapiens, UniProt Q9UQ07); experiment: Inhibition of recombinant human MOK (1 to 343 residues) using RSRSRSRSRSRSR as substrate incubated for 40 mins in presence of [gamma-33ATP by radiometric scintillation counting analysis
[9] = target: Tyrosine-protein kinase Fyn (Homo sapiens, UniProt P06241); experiment: Inhibition of recombinant full length human Fyn using […] as substrate after 40 mins in presence of [gamma-33ATP] by radiometric scintillation counting analysis
Tau-tubulin kinase 2 = Tau-tubulin kinase 2 (Homo sapiens, UniProt Q6IQ55); experiment: Inhibition of recombinant human TTBK2 (1 to331 residues) using casein as substrate incubated for 40 mins in presence of [gamma33P]ATP by radiometric scintillation counting analysis
[10] = target: Tyrosine-protein kinase ABL1 (Homo sapiens, UniProt P00519); experiment: Inhibition of human recombinant ABL1 (27 to end residues) using EAIYAAPFAKKK as substrate incubated for 40 mins in presence of [gamma-33P]ATP by radiometric scintillation counting analysis
Tyrosine-protein kinase ABL1, sequence (P00519 whole entry): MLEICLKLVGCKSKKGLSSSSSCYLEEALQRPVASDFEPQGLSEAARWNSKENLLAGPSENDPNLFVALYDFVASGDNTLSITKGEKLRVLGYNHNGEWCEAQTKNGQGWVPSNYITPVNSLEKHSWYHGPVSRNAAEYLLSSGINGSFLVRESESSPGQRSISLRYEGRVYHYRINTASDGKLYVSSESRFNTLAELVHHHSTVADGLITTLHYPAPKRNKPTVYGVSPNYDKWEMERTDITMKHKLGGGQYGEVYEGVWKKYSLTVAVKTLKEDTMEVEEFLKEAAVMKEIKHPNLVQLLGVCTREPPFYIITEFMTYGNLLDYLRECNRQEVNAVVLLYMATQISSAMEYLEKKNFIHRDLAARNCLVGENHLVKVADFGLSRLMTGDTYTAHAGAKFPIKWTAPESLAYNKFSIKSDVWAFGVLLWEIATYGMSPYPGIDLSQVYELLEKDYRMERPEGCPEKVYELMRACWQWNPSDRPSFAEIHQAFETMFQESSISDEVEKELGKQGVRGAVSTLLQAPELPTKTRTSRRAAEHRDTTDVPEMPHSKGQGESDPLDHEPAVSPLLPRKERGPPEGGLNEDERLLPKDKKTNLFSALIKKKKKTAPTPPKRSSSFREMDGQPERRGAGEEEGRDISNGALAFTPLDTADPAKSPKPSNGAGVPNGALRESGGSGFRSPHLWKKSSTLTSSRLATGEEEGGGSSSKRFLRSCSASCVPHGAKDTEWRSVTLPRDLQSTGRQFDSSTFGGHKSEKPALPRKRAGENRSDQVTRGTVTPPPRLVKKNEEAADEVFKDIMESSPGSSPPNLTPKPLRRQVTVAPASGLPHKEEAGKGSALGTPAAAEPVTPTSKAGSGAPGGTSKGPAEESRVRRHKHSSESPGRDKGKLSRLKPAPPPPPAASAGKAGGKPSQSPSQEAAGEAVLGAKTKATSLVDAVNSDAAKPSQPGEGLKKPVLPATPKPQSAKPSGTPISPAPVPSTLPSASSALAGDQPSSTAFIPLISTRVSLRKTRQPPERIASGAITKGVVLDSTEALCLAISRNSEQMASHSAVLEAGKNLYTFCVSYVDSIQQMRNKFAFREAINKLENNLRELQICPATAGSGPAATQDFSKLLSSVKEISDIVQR

[11] = Inhibition of recombinant human Ros V2262A mutant (1883 to end residues) using KKKSPGEYVNIEFG as substrate incubated for 40 mins in presence of [gamma33P]ATP by radiometric scintillation counting analysis
SRSF protein kinase 3 = SRSF protein kinase 3 (Homo sapiens, UniProt Q9UPE1); experiment: Inhibition of recombinant full-length human MSSK1 using ERMRPRKRQGSVRRRV as substrate measured after 40 mins in presence of [gamma33P]ATP by radiometric scintillation counting analysis
[12] = target: Serine/threonine-protein kinase mTOR (Homo sapiens, UniProt P42345); experiment: Inhibition of recombinant full length human mTOR measured after 40 mins in presence of [gamma33P]ATP by radiometric scintillation counting analysis
[13] = target: Proto-oncogene tyrosine-protein kinase Src (Homo sapiens, UniProt P12931); experiment: Inhibition of recombinant human C-Src using […] as substrate incubated 40 mins in presence of [gamma-33ATP] by radiometric scintillation counting analysis
[14] = target: Calcium/calmodulin-dependent protein kinase kinase 2 (Homo sapiens, UniProt Q96RR4, T85S); experiment: Inhibition of recombinant full length human CaMKK2 T85S mutant using calmodulin as substrate incubated for 40 mins in presence of [gamma-33ATP] by radiometric scintillation counting analysis
[15] = target: Calcium/calmodulin-dependent protein kinase kinase 1 (Homo sapiens, UniProt Q8N5S9); experiment: Inhibition of recombinant full length human CaMKK1 using calmodulin as substrate incubated for 40 mins in presence of [gamma-33ATP] by radiometric scintillation counting analysis
[16] = target: Receptor-type tyrosine-protein kinase FLT3 (Homo sapiens, UniProt P36888); experiment: Inhibition of recombinant human FLT3 (564 to end residues) using EAIYAAPFAKKK as substrate after 40 mins in presence of [gamma-33ATP] by radiometric scintillation counting analysis
[17] = target: Protein-tyrosine kinase 2-beta (Homo sapiens, UniProt Q14289); experiment: Inhibition of recombinant human full length PYK2 using poly(Glu, Tyr) 4:1 as substrate incubated for 40 mins in presence of [gamma33P]ATP by radiometric scintillation counting analysis
FKBP12A/mTOR = FKBP12A/mTOR (Homo sapiens, UniProt P42345+P62942); experiment: Inhibition of recombinant full length human mTOR/FKBP12 measured after 40 mins in presence of [gamma33P]ATP by radiometric scintillation counting analysis; format: protein-complex assay
Myotonin-protein kinase = Myotonin-protein kinase (Homo sapiens, UniProt Q09013); experiment: Inhibition of recombinant human DMPK (1 to 549 residues) using KKSRGDYMTMQIG as substrate after 40 mins in presence of [gamma-33ATP] by radiometric scintillation counting analysis
Myotonin-protein kinase, sequence (Q09013 whole entry, the tested form may be a part): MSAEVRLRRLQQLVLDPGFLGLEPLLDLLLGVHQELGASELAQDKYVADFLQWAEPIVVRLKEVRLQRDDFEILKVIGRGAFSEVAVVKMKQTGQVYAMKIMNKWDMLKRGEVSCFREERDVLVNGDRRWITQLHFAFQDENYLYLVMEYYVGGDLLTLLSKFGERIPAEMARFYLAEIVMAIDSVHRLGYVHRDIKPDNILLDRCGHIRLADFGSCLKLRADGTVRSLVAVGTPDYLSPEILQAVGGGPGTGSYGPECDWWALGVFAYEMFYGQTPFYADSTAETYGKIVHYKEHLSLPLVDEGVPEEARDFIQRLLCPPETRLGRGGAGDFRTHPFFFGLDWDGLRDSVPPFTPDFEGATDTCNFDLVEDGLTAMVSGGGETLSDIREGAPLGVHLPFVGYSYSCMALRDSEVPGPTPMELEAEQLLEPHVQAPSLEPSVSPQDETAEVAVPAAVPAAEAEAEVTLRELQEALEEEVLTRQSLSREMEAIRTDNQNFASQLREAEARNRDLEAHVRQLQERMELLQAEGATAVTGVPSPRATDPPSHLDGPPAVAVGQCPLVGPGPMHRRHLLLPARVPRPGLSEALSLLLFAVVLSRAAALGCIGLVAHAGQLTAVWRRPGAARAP

[18] = target: Receptor tyrosine-protein kinase erbB-4 (Homo sapiens, UniProt Q15303); experiment: Inhibition of recombinant human ERBB4 (706 to 991 residues) using poly(Glu, Tyr) 4:1 as substrate after 40 mins in presence of [gamma-33ATP] by radiometric scintillation counting analysis
Receptor tyrosine-protein kinase erbB-4, sequence (Q15303 whole entry, the tested form may be a part): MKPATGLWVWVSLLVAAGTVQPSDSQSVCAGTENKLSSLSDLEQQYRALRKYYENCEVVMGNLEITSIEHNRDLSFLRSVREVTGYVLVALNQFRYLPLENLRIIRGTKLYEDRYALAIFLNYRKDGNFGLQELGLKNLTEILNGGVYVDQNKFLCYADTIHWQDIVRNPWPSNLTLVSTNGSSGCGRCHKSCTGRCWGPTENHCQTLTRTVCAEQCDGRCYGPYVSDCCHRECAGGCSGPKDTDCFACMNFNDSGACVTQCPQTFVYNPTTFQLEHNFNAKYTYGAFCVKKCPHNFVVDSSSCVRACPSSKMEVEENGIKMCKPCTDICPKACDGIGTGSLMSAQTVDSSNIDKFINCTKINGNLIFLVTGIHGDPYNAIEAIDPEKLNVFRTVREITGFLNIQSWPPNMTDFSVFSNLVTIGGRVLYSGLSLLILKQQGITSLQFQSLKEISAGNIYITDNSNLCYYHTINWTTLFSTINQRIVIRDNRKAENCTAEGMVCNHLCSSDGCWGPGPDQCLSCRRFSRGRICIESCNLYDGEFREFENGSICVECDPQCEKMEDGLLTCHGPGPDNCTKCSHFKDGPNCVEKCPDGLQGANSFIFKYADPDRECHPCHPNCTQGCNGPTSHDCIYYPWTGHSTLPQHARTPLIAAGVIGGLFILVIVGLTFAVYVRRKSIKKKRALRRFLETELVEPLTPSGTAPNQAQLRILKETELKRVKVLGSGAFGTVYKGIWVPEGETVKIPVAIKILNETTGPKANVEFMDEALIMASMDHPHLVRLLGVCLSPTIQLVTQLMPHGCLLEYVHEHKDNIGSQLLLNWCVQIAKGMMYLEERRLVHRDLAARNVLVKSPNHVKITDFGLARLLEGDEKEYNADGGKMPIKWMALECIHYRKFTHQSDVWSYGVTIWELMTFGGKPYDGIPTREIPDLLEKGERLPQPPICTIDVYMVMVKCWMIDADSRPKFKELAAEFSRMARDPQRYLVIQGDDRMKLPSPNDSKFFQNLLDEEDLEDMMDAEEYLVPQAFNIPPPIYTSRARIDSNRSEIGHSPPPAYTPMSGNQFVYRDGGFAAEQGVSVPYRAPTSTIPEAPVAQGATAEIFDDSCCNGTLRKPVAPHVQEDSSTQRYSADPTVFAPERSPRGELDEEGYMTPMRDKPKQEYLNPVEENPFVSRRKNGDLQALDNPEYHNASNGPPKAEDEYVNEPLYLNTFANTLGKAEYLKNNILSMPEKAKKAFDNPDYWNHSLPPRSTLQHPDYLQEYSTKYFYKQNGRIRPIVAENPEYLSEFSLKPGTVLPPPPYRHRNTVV

[19] = target: Serine/threonine-protein kinase D3 (Homo sapiens, UniProt O94806); experiment: Inhibition of recombinant full-length human PKD3 using KKLRRTLSVA as substrate incubated for 40 mins in presence of [gamma33P]ATP by radiometric scintillation counting analysis
[20] = target: Homeodomain-interacting protein kinase 2 (Homo sapiens, UniProt Q9H2X6); experiment: Inhibition of human recombinant HIPK2 I471N mutant (165 to 564 residues) using myelin basic protein as substrate after 40 mins by [gamma-33ATP] radiometric assay
[21] = target: Ribosomal protein S6 kinase alpha-6 (Homo sapiens, UniProt Q9UK32); experiment: Inhibition of recombinant full length human Rsk4 using LRRASLG as substrate incubated for 40 mins in presence of [gamma33P]ATP by radiometric scintillation counting analysis
Ribosomal protein S6 kinase alpha-6, sequence (Q9UK32 whole entry): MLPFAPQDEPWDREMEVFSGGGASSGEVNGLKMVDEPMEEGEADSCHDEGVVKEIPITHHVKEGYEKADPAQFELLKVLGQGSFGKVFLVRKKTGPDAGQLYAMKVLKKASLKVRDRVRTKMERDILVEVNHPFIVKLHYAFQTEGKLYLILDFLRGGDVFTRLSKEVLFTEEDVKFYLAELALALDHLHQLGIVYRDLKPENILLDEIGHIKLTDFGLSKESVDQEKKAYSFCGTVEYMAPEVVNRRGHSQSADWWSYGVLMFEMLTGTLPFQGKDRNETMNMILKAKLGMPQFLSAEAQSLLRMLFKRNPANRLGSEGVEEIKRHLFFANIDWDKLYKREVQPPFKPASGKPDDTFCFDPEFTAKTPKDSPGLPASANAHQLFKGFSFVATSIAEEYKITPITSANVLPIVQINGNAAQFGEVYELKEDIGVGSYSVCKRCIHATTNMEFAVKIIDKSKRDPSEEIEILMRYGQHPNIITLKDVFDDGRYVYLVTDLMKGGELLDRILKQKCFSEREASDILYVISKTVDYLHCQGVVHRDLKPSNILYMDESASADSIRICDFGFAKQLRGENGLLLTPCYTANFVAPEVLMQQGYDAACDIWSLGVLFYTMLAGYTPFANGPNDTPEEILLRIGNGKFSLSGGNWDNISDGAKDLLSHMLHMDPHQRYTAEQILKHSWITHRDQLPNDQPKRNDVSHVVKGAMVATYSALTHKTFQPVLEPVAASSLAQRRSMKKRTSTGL

[22] = target: Dual specificity protein kinase CLK3 (Homo sapiens, UniProt P49761); experiment: Inhibition of recombinant full length human CLK3 using ERMRPRKRQGSVR as substrate incubated 40 mins in presence of [gamma-33ATP] by radiometric scintillation counting analysis

Measured: IC50

CN(C)c1ccc(C(=O)Nc2cccc(NC(=O)COc3ccc4c(=O)ccoc4c3)c2)cc1
> 10 µM: all assays above
